Test results: PubChem BioAssay (NCI)
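In this assay, cells in 96-well plates receive the compound at five concentrations for 48 hours. Endpoints are linearly interpolated between the surrounding concentrations. Definition used: TGI = concentration required for complete inhibition of growth.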

Key:
Experiment in all cases: inhibition of tumour cell growth, NCI panel, 48 h
786-0 renal = tested on: 786-0 renal
A498 renal = tested on: A498 renal
A549 NSCLC = tested on: A549 NSCLC
ACHN renal = tested on: ACHN renal
BT-549 breast = tested on: BT-549 breast
CAKI-1 renal = tested on: CAKI-1 renal
CCRF-CEM leukemia = tested on: CCRF-CEM leukemia
COLO 205 colon = tested on: COLO 205 colon
DU-145 prostate = tested on: DU-145 prostate
EKVX NSCLC = tested on: EKVX NSCLC
HCC-2998 colon = tested on: HCC-2998 colon
HCT-116 colon = tested on: HCT-116 colon
HCT-15 colon = tested on: HCT-15 colon
HL-60(TB) leukemia = tested on: HL-60(TB) leukemia
HOP-62 NSCLC = tested on: HOP-62 NSCLC
HOP-92 NSCLC = tested on: HOP-92 NSCLC
HT29 colon = tested on: HT29 colon
IGROV1 ovarian = tested on: IGROV1 ovarian
K-562 leukemia = tested on: K-562 leukemia
KM12 colon = tested on: KM12 colon
LOX IMVI melanoma = tested on: LOX IMVI melanoma
M14 melanoma = tested on: M14 melanoma
MALME-3M melanoma = tested on: MALME-3M melanoma
MCF7 breast = tested on: MCF7 breast
MDA-MB-231 breast = tested on: MDA-MB-231 breast
MDA-MB-435 = tested on: MDA-MB-435
MDA-N = tested on: MDA-N
MOLT-4 leukemia = tested on: MOLT-4 leukemia
NCI-H226 lung = tested on: NCI-H226 lung
NCI-H23 lung = tested on: NCI-H23 lung
NCI-H460 lung = tested on: NCI-H460 lung
NCI-H522 lung = tested on: NCI-H522 lung
NCI/ADR-RES ovarian = tested on: NCI/ADR-RES ovarian
OVCAR-3 ovarian = tested on: OVCAR-3 ovarian
OVCAR-4 ovarian = tested on: OVCAR-4 ovarian
OVCAR-5 ovarian = tested on: OVCAR-5 ovarian
OVCAR-8 ovarian = tested on: OVCAR-8 ovarian
PC-3 prostate = tested on: PC-3 prostate
RXF 393 renal = tested on: RXF 393 renal
SF-268 CNS = tested on: SF-268 CNS
SF-295 CNS = tested on: SF-295 CNS
SF-539 CNS = tested on: SF-539 CNS
SK-MEL-2 melanoma = tested on: SK-MEL-2 melanoma
SK-MEL-28 melanoma = tested on: SK-MEL-28 melanoma
SK-MEL-5 melanoma = tested on: SK-MEL-5 melanoma
SK-OV-3 ovarian = tested on: SK-OV-3 ovarian
SN12C renal = tested on: SN12C renal
SNB-19 CNS = tested on: SNB-19 CNS
SNB-75 CNS = tested on: SNB-75 CNS
SR leukemia = tested on: SR leukemia
SW-620 colon = tested on: SW-620 colon
T-47D breast = tested on: T-47D breast
TK-10 renal = tested on: TK-10 renal
U251 CNS = tested on: U251 CNS
UACC-257 melanoma = tested on: UACC-257 melanoma
UACC-62 melanoma = tested on: UACC-62 melanoma
UO-31 renal = tested on: UO-31 renal

Measured: TGI

Cc1c(O)c(OC2OC(CO)C(O)C(O)C2O)cc2c1CC[C@@H]1C2(C)C(=O)C[C@]2(C)[C@@H]([C@@](C)(O)C(O)/C=C/C(C)(C)O)[C@H](O)C[C@@]12C (some centres not stated)
> 100 µM: all assays above
